According to ChEMBL document CHEMBL4196082, “2-Aryl benzimidazoles: Synthesis, In vitro α-amylase inhibitory activity, and molecular docking study” (Eur J Med Chem, 2018):

Biological target: T1, Alpha amylase (Homo sapiens, UniProt P0DUB6)
T1 sequence (P0DUB6 whole entry): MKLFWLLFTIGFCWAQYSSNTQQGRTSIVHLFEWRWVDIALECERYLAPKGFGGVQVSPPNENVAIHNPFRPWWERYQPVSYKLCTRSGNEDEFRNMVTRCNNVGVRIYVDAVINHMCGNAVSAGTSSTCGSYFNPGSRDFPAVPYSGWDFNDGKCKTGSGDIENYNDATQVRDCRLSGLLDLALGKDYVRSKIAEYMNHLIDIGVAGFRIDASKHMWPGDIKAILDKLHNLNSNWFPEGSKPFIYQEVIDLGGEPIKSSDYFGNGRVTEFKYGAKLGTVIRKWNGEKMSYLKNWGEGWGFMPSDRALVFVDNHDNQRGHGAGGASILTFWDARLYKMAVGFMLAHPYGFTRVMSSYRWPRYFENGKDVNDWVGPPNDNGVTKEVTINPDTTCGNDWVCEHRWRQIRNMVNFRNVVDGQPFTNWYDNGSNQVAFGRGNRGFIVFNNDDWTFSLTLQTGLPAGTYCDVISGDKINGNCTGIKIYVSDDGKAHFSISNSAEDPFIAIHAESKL
Test: Inhibition of alpha-amylase (unknown origin) using starch as substrate preincubated for 10 mins followed by substrate addition measured after 10 mins by dinitrosalicylic acid reagent-based assay

| Structure (SMILES) | IC50 |
| --- | --- |
| O=[N+]([O-])c1ccc2[nH]c(-c3cc(Br)ccc3F)nc2c1 | 2310 nM |
| COc1cccc(-c2nc3cc(C)c(C)cc3[nH]2)c1Cl | 2840 nM |
| COc1ccc(-c2nc3cc(Cl)ccc3[nH]2)c(F)c1 | 2740 nM |
| COc1cccc(-c2nc3ccccc3[nH]2)c1Cl | 2740 nM |
| COc1cc(-c2nc3cc(Cl)ccc3[nH]2)cc(OC)c1O | 2520 nM |
| Cc1cc2nc(-c3cc(Cl)cc(Cl)c3O)[nH]c2cc1C | 2980 nM |
| COc1cc(-c2nc3cc([N+](=O)[O-])ccc3[nH]2)ccc1OC(C)=O | 1730 nM |
| COc1cc(-c2nc3cc(Cl)ccc3[nH]2)cc(I)c1O | 1610 nM |
| COc1ccc(-c2nc3cc([N+](=O)[O-])ccc3[nH]2)c(F)c1 | 2750 nM |
| COc1cc(-c2nc3cc([N+](=O)[O-])ccc3[nH]2)cc(I)c1O | 1720 nM |
| COc1cc(Br)c(-c2nc3ccccc3[nH]2)cc1OC | 1510 nM |
| COc1ccc(-c2nc3cc(C)c(C)cc3[nH]2)c(F)c1 | 2780 nM |
| COc1cc(Br)c(-c2nc3cc(Cl)ccc3[nH]2)cc1OC | 1730 nM |
| COc1cc(-c2nc3cc(Cl)ccc3[nH]2)ccc1OC(C)=O | 1680 nM |
| COc1cc(-c2nc3cc(C)c(C)cc3[nH]2)cc(I)c1O | 1770 nM |
| Oc1ccc(-c2nc3cc(F)ccc3[nH]2)c(O)c1 | 2980 nM |
| COc1cc(Br)c(-c2nc3cc([N+](=O)[O-])ccc3[nH]2)cc1OC | 1870 nM |
| COc1ccc(-c2nc3cc(Cl)ccc3[nH]2)c(Cl)c1OC | 1510 nM |
| Oc1c(Br)cc(Cl)cc1-c1nc2cc(Cl)ccc2[nH]1 | 2860 nM |
| COc1cccc(-c2nc3cc([N+](=O)[O-])ccc3[nH]2)c1Cl | 2780 nM |
| Oc1c(Br)cc(Cl)cc1-c1nc2ccccc2[nH]1 | 2850 nM |
| COc1cc(Br)c(-c2nc3cc(C)c(C)cc3[nH]2)cc1OC | 1480 nM |
| Cc1cc2nc(-c3cc(Cl)cc(Br)c3O)[nH]c2cc1C | 2920 nM |
| COc1cccc(-c2nc3cc(Cl)ccc3[nH]2)c1Cl | 2780 nM |
| O=[N+]([O-])c1ccc2[nH]c(-c3cc(Cl)cc(Br)c3O)nc2c1 | 2870 nM |
| COc1cc(-c2nc3cc(Cl)ccc3[nH]2)cc(OC)c1Br | 1620 nM |
| Cc1cc2nc(-c3cc(O)ccc3O)[nH]c2cc1C | 2990 nM |
| COc1ccc(-c2nc3cc(C)c(C)cc3[nH]2)c(OC)c1OC | 2300 nM |
| COc1cc(-c2nc3cc(C)c(C)cc3[nH]2)cc(OC)c1Br | 1590 nM |

Continued, values first:

| IC50 | Structure (SMILES) |
| --- | --- |
| 2490 nM | COc1cc(-c2nc3cc(F)ccc3[nH]2)cc(OC)c1O |
| 2480 nM | COc1ccc(Br)c(-c2nc3ccccc3[nH]2)c1O |
| 2620 nM | COc1ccc(Br)cc1-c1nc2cc(Cl)ccc2[nH]1 |
| 2290 nM | COc1ccc(Br)c(-c2nc3cc([N+](=O)[O-])ccc3[nH]2)c1O |
| 2170 nM | COc1ccc(Br)c(-c2nc3cc(F)ccc3[nH]2)c1O |
| 2600 nM | COc1ccc(Br)cc1-c1nc2cc(F)ccc2[nH]1 |
| 2260 nM | COc1ccc(Br)c(-c2nc3cc(C)c(C)cc3[nH]2)c1O |
| 1680 nM | COc1cc(-c2nc3cc(F)ccc3[nH]2)ccc1OC(C)=O |
| 2540 nM | Oc1ccc(-c2nc3cc(F)ccc3[nH]2)c(O)c1O |
| 2620 nM | COc1cccc(-c2nc3cc(F)ccc3[nH]2)c1Cl |
| 2870 nM | Oc1c(Cl)cc(Cl)cc1-c1nc2cc(F)ccc2[nH]1 |
| 2860 nM | Oc1c(Br)cc(Cl)cc1-c1nc2cc(F)ccc2[nH]1 |
| 1570 nM | COc1cc(Br)c(-c2nc3cc(F)ccc3[nH]2)cc1OC |
| 2210 nM | COc1ccc(Br)c(-c2nc3cc(Cl)ccc3[nH]2)c1O |
| 2560 nM | COc1ccc(-c2nc3cc(F)ccc3[nH]2)c(Cl)c1OC |
| 1590 nM | COc1ccc(-c2nc3cc(F)ccc3[nH]2)c(F)c1 |
